{"source": "patent US6822146B2", "about": "“Sulfonylurea-tolerant sunflower line M7” (priority 2000, dated 2004)", "format_in_all_cases": "in vivo, sunflower", "key": {"BC4-M5M11": {"test_system": "BC4-M5M11", "assay": "Test B greenhouse phytotoxicity, BC4-M5M11", "conditions": "in vivo", "outline": "(§1)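 Formulated ALS-inhibiting herbicides sprayed post-emergence at the 4-leaf stage on homozygous mutant sunflower inbreds (M5 maintainers and BC4 male-sterile back-crosses) in the greenhouse, at rates commonly used in registered crops. Two replicates; crop injury rated as % phytotoxicity, 0% meaning no injury.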"}, "BC4-M5M12": {"test_system": "BC4-M5M12", "assay": "Test B greenhouse phytotoxicity, BC4-M5M12", "conditions": "in vivo", "outline": "as §1"}, "M5M11": {"test_system": "M5M11", "assay": "Test B greenhouse phytotoxicity, M5M11", "conditions": "in vivo", "outline": "as §1"}, "M5M7": {"test_system": "M5M7", "assay": "Test B greenhouse phytotoxicity, M5M7", "conditions": "in vivo", "outline": "as §1"}, "M5M12": {"test_system": "M5M12", "assay": "Test B greenhouse phytotoxicity, M5M12", "conditions": "in vivo", "outline": "as §1"}, "[1]": {"test_system": "homozygous progeny of the three mutant sources", "conditions": "Test B application rates, post-emergence", "outline": "as §1"}, "BC4-M5M7": {"test_system": "BC4-M5M7", "assay": "Test B greenhouse phytotoxicity, BC4-M5M7", "conditions": "in vivo", "outline": "as §1"}}}
{"smiles": "COC(=O)c1ccccc1S(=O)(=O)NC(=O)N(C)c1nc(C)nc(OC)n1", "note": "[Tribenuron-methyl, tribenuron-methyl]", "values": [{"measurement": "Maximum Phytotoxicity", "setting": "BC4-M5M11", "result": 17.5, "unit": "%"}, {"measurement": "Maximum Phytotoxicity", "setting": "BC4-M5M12", "result": 20, "unit": "%"}, {"measurement": "Maximum Phytotoxicity", "setting": "M5M11", "result": 0, "unit": "%"}, {"measurement": "Maximum Phytotoxicity", "setting": "M5M7", "result": 12.5, "unit": "%"}, {"measurement": "Maximum Phytotoxicity", "setting": "M5M12", "result": 7.5, "unit": "%"}, {"measurement": "tolerance of the mutants", "setting": "[1]", "result": "good tolerance"}, {"measurement": "Maximum Phytotoxicity", "setting": "BC4-M5M7", "result": 10, "unit": "%"}]}
